Laboratory results from ChEMBL document CHEMBL3886414, “Bicarbocyclic and tricarbocyclic ethynyl derivatives and uses of same” (2015).

What follows are molecules tested against Metabotropic glutamate receptor 5 (Homo sapiens, UniProt P41594) (assay: Calcium Mobilization Assay: The rmGluR5 or hmGluR5 was stably expressed in a HEK 293 cell line and gown in Dulbecco's Modified Eagle Medium (DMEM) (Invitrogen, Carlsbad, Calif.) with supplements (10% bovine calf serum, 4 mM glutamine, 100 units/mL penicillin, 100 μg/mL streptomycin and […]) at 37° C., 5% CO2. Twenty-four hours prior to assay, cells were seeded into 384-well black wall microtiter plates coated with poly-D-lysine. Just prior to assay, media was aspirated and cells dye-loaded (25 μL/well) with 3 μM Fluo-4/0.01% pluronic acid in assay buffer (Hank's Balanced Saline Solution (HBSS)): 150 mM NaCl, 5 mM KCl, 1 mM CaCl2, 1 mM MgCl2, plus 20 mM N-2-Hydroxyethylpiperazine-N′-2-ethanesulfonic acid (HEPES), pH 7.4, 0.1% bovine serum albumin (BSA) and 2.5 mM probenecid) for 1 hour in 5% CO2 at 37° C. After excess dye was discarded, cells were washed in assay buffer and layered with a final volume equal to 30 μL/well. Basal fluorescence is monitored in a fluorometri).
Metabotropic glutamate receptor 5, sequence (P41594 whole entry): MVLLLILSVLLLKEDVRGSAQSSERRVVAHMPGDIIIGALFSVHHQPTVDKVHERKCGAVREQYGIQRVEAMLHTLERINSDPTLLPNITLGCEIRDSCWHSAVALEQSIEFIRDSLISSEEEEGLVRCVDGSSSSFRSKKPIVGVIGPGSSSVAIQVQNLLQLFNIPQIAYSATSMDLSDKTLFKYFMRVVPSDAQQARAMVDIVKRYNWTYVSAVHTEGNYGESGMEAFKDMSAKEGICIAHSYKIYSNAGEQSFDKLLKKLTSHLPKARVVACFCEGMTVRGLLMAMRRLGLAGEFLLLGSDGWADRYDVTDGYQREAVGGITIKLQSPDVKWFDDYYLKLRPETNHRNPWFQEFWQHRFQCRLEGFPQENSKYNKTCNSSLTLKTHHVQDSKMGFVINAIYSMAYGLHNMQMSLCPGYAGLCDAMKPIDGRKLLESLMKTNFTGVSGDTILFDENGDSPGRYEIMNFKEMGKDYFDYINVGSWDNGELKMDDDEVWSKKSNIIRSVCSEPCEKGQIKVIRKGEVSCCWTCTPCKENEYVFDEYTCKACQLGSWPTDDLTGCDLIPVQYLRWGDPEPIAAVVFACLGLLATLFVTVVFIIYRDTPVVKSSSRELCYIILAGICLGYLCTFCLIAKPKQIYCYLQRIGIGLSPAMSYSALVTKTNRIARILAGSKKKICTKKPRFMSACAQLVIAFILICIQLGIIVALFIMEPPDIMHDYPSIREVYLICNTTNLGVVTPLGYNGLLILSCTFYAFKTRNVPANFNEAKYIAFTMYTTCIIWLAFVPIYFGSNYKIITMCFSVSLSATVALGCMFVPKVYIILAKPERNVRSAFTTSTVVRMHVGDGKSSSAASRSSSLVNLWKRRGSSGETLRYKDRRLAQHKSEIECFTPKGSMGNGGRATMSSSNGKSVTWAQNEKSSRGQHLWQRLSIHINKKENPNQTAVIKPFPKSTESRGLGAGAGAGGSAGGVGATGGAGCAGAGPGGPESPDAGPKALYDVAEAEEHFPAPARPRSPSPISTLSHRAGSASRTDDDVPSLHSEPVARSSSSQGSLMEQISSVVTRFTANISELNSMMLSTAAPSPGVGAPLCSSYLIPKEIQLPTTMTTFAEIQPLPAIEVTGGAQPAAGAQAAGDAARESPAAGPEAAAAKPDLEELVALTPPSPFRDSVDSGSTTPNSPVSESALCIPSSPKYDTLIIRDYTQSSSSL
Assay type: functional, cell-based, HEK293

Row | Structure (SMILES) | IC50 [nM]
1 | Cc1ccc(C#CC23CC4CC(C2)CC(NC(=O)c2cnccn2)(C4)C3)cn1 | 700
2 | Cc1cncc(C(=O)NC23CC4CC(CC(C#Cc5cccnc5)(C4)C2)C3)n1 | 3.8
3 | O=C(NC12CCCC(C#Cc3cccc(F)c3)(CC1)C2)c1cnccn1 (stereo unspecified) | 1.2
4 | O=C(NC12CC3CC(CC(C#Cc4cnccn4)(C3)C1)C2)c1cncc(F)c1 | 30
5 | O=C(N[C@@]12CCC[C@@](C#Cc3ncccc3F)(CC1)C2)c1cnccn1 | 9.3
6 | Cc1cccc(C#C[C@]23CCC[C@](NC(=O)c4ccccn4)(CC2)C3)n1 | 5.3
